test system: DND41 cells; test: MTS cell proliferation assay (IG50), DND41; format: cell-based, human; settings: 36-hour treatments in DND41 cells; mean of triplicate experiments ± S.D.; Table 2; read-out: IG50 ± S.D.
Experimental: In order to evaluate the biological implications of the compounds, their effect on cell proliferation/vitality was tested by determining the relative concentrations of growth inhibition (IG50) by means of the MTS cellular assay.
The cell lines DND41 (ACC 525, DSMZ, Braunschweig, GERMANY), KOPTK1 (RRID: CVCL_4965) were maintained in culture in RPMI-1640 (Gibco, Carlsbad, Calif., USA) with 10% fetal bovine serum. TALL-1 cells (ACC-521: DSMZ, Braunschweig, GERMANY) were cultured in RPMI-1640 (Gibco, Carlsbad, Calif., USA) supplemented with 20% fetal bovine serum, while HaCaT cells (ACC-771: DSMZ, Braunschweig, GERMANY) were maintained in Eagle's culture medium according to Dulbecco (Gibco, Carlsbad, Calif., USA) containing 10% fetal bovine serum. Cells were treated with the naturally-occurring compounds A-H or with compounds 1-17 for times and concentrations indicated in the text.
Cells were seeded in 96-well plates with a density of 5×10^5 cells/ml (5×10^4 cells per well) and treated for the times and the concentrations of the various compounds, as indicated in the text.
All treatments were carried out in triplicate, including control treatments. All treatment reactions contained a final concentration of 1% DMSO (D5879; Sigma-Aldrich, St Louis, Mo., USA). To quantify vitality, cells were assayed by the MTS CellTiter 96® AQueous One Solution Cell Proliferation Assay (G3580; Promega, Madison, Wis., USA). Absorbance was detected at 490 nm using the GloMax Multidetection System instrument (Promega, Madison, Wis., USA). Data were collected in the form of absorbance units (ABSs) and standardized to obtain the proliferation rate (MTS) through the equation: % cell proliferation=(ABScell culture+compound−ABSculture medium+compound/(ABScell culture+DMSO−ABSculture medium+DMSO)×100.
The 50% inhibition concentration was calculated using the GraphPad Prism software program (GraphPad Software Inc., La Jolla, Calif., USA).

SMILES | IC50 [µM]
COc1ccc(C(=O)CCc2ccc(O)cc2)c(O)c1 [Compound 8b, 2′,4-dihydroxy-4′-methoxydihydrochalcone] | > 50

same assay, conditions: Homo sapiens; 36-hour treatments in DND41 cells; mean of triplicate experiments ± S.D.; Table 2; read-out: IG50 ± S.D.

SMILES | IC50 [µM]
COc1ccc(C(=O)/C=C/c2ccc(OC)c(OC)c2)c(OC)c1 [Compound 1, 2′,3,4,4′-tetramethoxychalcone] | 15 ± 3.04
COc1ccc(C(=O)/C=C/c2ccc(OC)c(OC)c2)c(O)c1 [Compound 2, 2′-hydroxy-3,4,4′-trimethoxychalcone] | 31 ± 5.98
COc1ccc(/C=C/C(=O)c2ccc(OC)cc2O)cc1 [Compound 3, 2′-hydroxy-4,4′-dimethoxychalcone] | 47.5 ± 1.14
COc1ccc(/C=C/C(=O)c2ccc(OC)cc2OC)cc1 [Compound 4, 2′,4,4′-trimethoxychalcone] | 14.4 ± 2.56
COc1ccc(C(=O)/C=C/c2ccc(OC)c(O)c2)c(O)c1 [Compound 5, 2′,3-dihydroxy-4,4′-dimethoxychalcone] | 36.2 ± 10.6
COc1ccc(C(=O)/C=C/c2ccc(OC)c(OC3CCCCO3)c2)c(O)c1 (centres unmarked) [Compound 5a, 2′-hydroxy-4,4′-dimethoxy-3-(tetrahydropyran-2-yloxy) chalcone] | > 50
COc1ccc(/C=C/C(=O)c2ccc(OC3CCCCO3)cc2O)cc1OC (centres unmarked) [Compound 6a, 2′-hydroxy-3,4-dimethoxy-4′-(tetrahydropyran-2-yloxy)chalcone] | > 50
COc1ccc(C(=O)/C=C/c2ccc(O)c(OC)c2)c(O)c1 [Compound 7, 2′,4-dihydroxy-3,4′-dimethoxychalcone] | 33.1 ± 1.89
COc1ccc(C(=O)/C=C/c2ccc(OC3CCCCO3)c(OC)c2)c(O)c1 (centres unmarked) [Compound 7a, 2′-hydroxy-3,4′-dimethoxy-4-(tetrahydropyran-2-yloxy)chalcone] | 24.4 ± 1.76
COc1ccc(C(=O)/C=C/c2ccc(OC3CCCCO3)cc2)c(O)c1 (centres unmarked) [Compound 8a, 2′-hydroxy-4′-methoxy-4-(tetrahydropyran-2-yloxy)chalcone] | 48.5 ± 3.42
COc1ccc(C(=O)/C=C/c2ccccc2)c(O)c1 [Compound 9, 2′-hydroxy-4′-methoxychalcone] | 11.1 ± 0.59
COc1cccc(/C=C/C(=O)c2ccc(OC)cc2O)c1 [Compound 10, 2′-hydroxy-3,4′-dimethoxychalcone] | 21.3 ± 1.72
COc1ccc(C(=O)/C=C/c2cccc(O)c2)c(O)c1 [Compound 11, 2′,3-dihydroxy-4′-methoxychalcone] | 13.6 ± 1.76
COc1ccc(C(=O)/C=C/c2cccc(OC3CCCCO3)c2)c(O)c1 (centres unmarked) [Compound 11a, 2′-hydroxy-4′-methoxy-3-(tetrahydropyran-2-yloxy)chalcone] | 17.4 ± 1.2
COc1ccc(C(=O)/C=C/c2ccccc2O)c(O)c1 [Compound 12, 2,2′-dihydroxy-4′-methoxychalcone] | 14.2 ± 0.58
COc1ccc(C(=O)/C=C/c2ccccc2OC)c(O)c1 [Compound 13, 2′-hydroxy-2,4′-dimethoxychalcone] | 21.8 ± 1.78
O=C(/C=C/c1ccc(O)cc1)c1ccccc1O [Compound 14, 2′,4-dihydroxychalcone] | 16.5 ± 0.9
O=C(/C=C/c1ccc(OC2CCCCO2)cc1)c1ccccc1O (centres unmarked) [Compound 14a, 2′-hydroxy-4-(tetrahydropyran-2-yloxy)chalcone] | 48.6 ± 3.42
COc1ccccc1C(=O)/C=C/c1ccc(O)cc1 [Compound 15, 4-hydroxy-2′-methoxychalcone] | 16.8 ± 2.71
COc1ccccc1C(=O)/C=C/c1ccc(OC2CCCCO2)cc1 (centres unmarked) [Compound 15a, 2′-methoxy-4-(tetrahydropyran-2-yloxy)chalcone] | 31.5 ± 1.46
COc1ccc(C(=O)/C=C/c2ccc(OC3CCCCO3)cc2)c(OC)c1 (centres unmarked) [Compound 16a, 2′,4′-dimethoxy-4-(tetrahydropyran-2-yloxy)chalcone] | 32.6 ± 0.92
COc1ccc(C(=O)/C=C/c2ccc(OC3CCCCO3)cc2)cc1 (centres unmarked) [Compound 17a, 4′-methoxy-4-(tetrahydropyran-2-yloxy)chalcone] | 28.8 ± 0.29
